One data set addresses GSK3β (Homo sapiens, UniProt P49841). Briefly: GSK3beta assay (SPA, biotinylated phosphorylated CREB peptide, ATP-P33). The data set is classed as biochemical. Particulars: ranges of pIC50 (−log IC50 (M)); 1 μM ATP, room temperature, one hour; read-out: GSK3b pIC50 (converted). The method, then:
(§1) GSK3beta assays were performed at room temperature in a 100 μl reaction volume of 25 mM Tris (pH 7.4) containing 10 mM MgCl2.6H2O, 1 mM DTI, 0.1 mgiml BSA, 5% glycerol and containing 5.7 ng/μl GSK3β, 5 μM biotinylated phosphorylated CREB peptide, 1 μM ATP, 0.85 μCi/ml ATP-P^33 and a suitable amount of a test compound of formula (I). After one hour, the reaction was terminated by adding 70 μl of Stop mix (0.1 mM ATP, 5 mg/ml streptavidin coated PVT SPA bead pH 11.0). The beads to which the phosphorylated CREB peptide is attached were allowed to settle overnight and the radioactivity of the beads was counted in a microtiterplate scintillation counter and compared with the results obtained in a control experiment (without the presence of a test compound) in order to determine the percentage of GSK3β inhibition. The IC50 value, i.e. the concentration (M) of the test compound at which 50% of GSK3β is inhibited, was calculated from the dose response curve obtained by performing the above-described GSK3β assay in the presence of different amounts of the test compound.

A further data set has as its target GSK3alpha (Homo sapiens, UniProt P49840). Briefly: GSK3alpha assay (same as the GSK3beta assay, 0.25 ng/μl GSK3alpha). The data set is classed as biochemical. To be noted: ranges of pIC50 (−log IC50 (M)), 1 μM ATP, read-out: GSK3a pIC50 (converted). The method, then: as §1
The GSK3alpha assay was performed in the same way as described above for the GSK3beta assay except for the concentration of GSK3alpha which is 0.25 ng/μl.

Structures are written as SMILES. Structures can show the parent of a compound that is named as a salt.

For orientation: melting point means the temperature, or range, at which the solid turns liquid.

Chain of GSK3β (P49841 whole entry, species assumed): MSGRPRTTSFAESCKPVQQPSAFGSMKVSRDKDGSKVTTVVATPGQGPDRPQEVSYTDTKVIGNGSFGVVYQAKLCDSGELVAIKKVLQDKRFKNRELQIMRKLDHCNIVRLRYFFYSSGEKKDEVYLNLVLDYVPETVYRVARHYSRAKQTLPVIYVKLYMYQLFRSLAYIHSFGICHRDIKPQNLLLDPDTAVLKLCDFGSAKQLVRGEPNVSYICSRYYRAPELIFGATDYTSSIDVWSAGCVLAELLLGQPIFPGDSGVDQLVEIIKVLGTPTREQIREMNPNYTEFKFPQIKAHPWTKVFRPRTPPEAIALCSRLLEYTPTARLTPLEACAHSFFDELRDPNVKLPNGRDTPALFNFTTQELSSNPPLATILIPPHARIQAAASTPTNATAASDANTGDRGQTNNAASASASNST
Chain of GSK3alpha (P49840 whole entry, species assumed): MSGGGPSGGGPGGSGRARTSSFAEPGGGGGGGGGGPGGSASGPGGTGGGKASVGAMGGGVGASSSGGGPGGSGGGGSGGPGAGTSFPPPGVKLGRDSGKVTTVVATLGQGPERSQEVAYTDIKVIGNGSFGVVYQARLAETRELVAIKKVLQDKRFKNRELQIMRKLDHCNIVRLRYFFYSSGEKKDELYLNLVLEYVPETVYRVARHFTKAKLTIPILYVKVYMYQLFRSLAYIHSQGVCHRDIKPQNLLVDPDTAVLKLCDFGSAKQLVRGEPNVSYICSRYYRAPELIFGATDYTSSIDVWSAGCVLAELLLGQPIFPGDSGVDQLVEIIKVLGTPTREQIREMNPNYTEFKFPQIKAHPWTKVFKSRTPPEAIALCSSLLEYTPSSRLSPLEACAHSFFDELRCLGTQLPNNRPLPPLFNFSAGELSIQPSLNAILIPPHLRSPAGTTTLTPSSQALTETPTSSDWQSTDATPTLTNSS

In the case of `OCc1cccc(-n2nnc3cnc(Nc4cccc(-c5cnco5)c4)nc32)c1` [Compound 96], the melting point lay in the range of 210 to 214 °C. Moreover, the IC50 at GSK3β is below 1e-08 M. For the same molecule, on GSK3alpha, the IC50 was below 1e-08 M.

As to `Fc1cccc(-n2nnc3cnc(Nc4cccc(-c5cccnc5)c4)nc32)c1` [Compound 30], the melting point is 208 to 212 °C. Further, on GSK3β, the IC50 is below 1e-08 M. Further, the IC50 at GSK3alpha is below 1e-08 M.

With `CN1CCN(c2ccc(Nc3ncc4nnn(C5CCCCC5)c4n3)cc2)CC1` [Compound 4], the melting point was found to be 167 °C.

Molecule `CN1CCN(c2ccc(Nc3ncc4nnn(-c5cccc(CC#N)c5)c4n3)cc2)CC1` [Compound 88] gave a melting point of 210 to 212 °C. Besides, the IC50 on GSK3β was below 1e-08 M. In addition, the IC50 at GSK3alpha was below 1e-08 M.

`Brc1cccc(-n2nnc3cnc(Nc4cccc(C5=NCNC5)c4)nc32)c1` (as salt: HCl) [Compound 43] showed a melting point above 260 °C.

`Cn1nccc1-c1cccc(Nc2ncc3nnn(-c4ccccc4)c3n2)c1` [Compound 9] returned a melting point of 216 °C. In addition, the IC50 at GSK3β is below 1e-08 M. The IC50 on GSK3alpha is below 1e-08 M.

With `O=[N+]([O-])c1cc(Nc2ncc3nnn(C4CCCCC4)c3n2)ccc1N1CCOCC1` [Compound 5], the melting point was found to be 161.9 °C. In addition, the IC50 at GSK3β is 1e-08 to 1e-07 M.

Consider `O=c1[nH]nc(-c2cccc(Nc3ncc4nnn(-c5cccc(F)c5)c4n3)c2)[nH]1` [Compound 1], for which the melting point is above 260 °C. For the same molecule, the IC50 at GSK3β was below 1e-08 M. On GSK3alpha, the IC50 is below 1e-08 M.

`NCc1cccc(-n2nnc3cnc(Nc4cccc(-c5cnco5)c4)nc32)c1` (as salt: HCl) [Compound 114] gave a melting point above 250 °C.

The molecule `N#CCc1cccc(-n2nnc3cnc(Nc4cccc(-c5ccnc(N)n5)c4)nc32)c1` [Compound 87] showed a melting point above 260 °C. Also, the IC50 at GSK3β is below 1e-08 M. Also, at GSK3alpha, the IC50 was below 1e-08 M.

The molecule `COCC(=O)NCc1cccc(-n2nnc3cnc(Nc4cccc(-c5cnco5)c4)nc32)c1` [Compound 122] registered a melting point of 210 to 214 °C. Further, the IC50 at GSK3β is below 1e-08 M. Besides, the IC50 at GSK3alpha is below 1e-08 M.

For the molecule `CN1CCN(c2cccc(Nc3ncc4nnn(-c5cccc(F)c5)c4n3)c2)CC1` (as salt: HCl) [Compound 36], the melting point was above 250 °C.

Consider `CN1CCN(CCOc2ccc(Nc3ncc4nnn(-c5cccc(CC#N)c5)c4n3)cc2)CC1` [Compound 93], for which the IC50 on GSK3β and on GSK3alpha was 1e-08 to 1e-07 M throughout.

`CNc1nccc(-c2cccc(Nc3ncc4nnn(-c5cccc(F)c5)c4n3)c2)n1` [Compound 34]: the IC50 at GSK3β and at GSK3alpha was below 1e-08 M in each case.

As to `COc1cccc(-n2nnc3cnc(Nc4cccc(-c5cnco5)c4)nc32)c1` [Compound 16], the IC50 at GSK3β and at GSK3alpha was below 1e-08 M in each case.

Regarding `CC(=O)NCc1cccc(-n2nnc3cnc(Nc4cccc(-c5cnco5)c4)nc32)c1` [Compound 115], the melting point lay within 156 to 160 °C. Also, the IC50 on GSK3β is below 1e-08 M. Besides, at GSK3alpha, the IC50 is below 1e-08 M.

Regarding `COCCOc1cccc(-n2nnc3cnc(Nc4ccc(C(=O)N5CCN(C)CC5)cc4)nc32)c1` [Compound 133], the figures for the IC50 on GSK3β and on GSK3alpha were 1e-08 to 1e-07 M and below 1e-08 M, respectively.

Consider `CN1CCN(c2ccc(Nc3ncc4nnn(-c5cccc(CCO)c5)c4n3)cc2)CC1` [Compound 77], for which the IC50 at GSK3β and on GSK3alpha was below 1e-08 M in each case.

Take `COc1cccc(-n2nnc3cnc(Nc4cccc(-c5nnn[nH]5)c4)nc32)c1` [Compound 127]: the IC50 is 1e-08 to 1e-07 M on GSK3β and below 1e-08 M on GSK3alpha.

Turning to `Cn1ccnc1-c1cccc(Nc2ncc3nnn(-c4cccc(C(N)=O)c4)c3n2)c1` [Compound 7], the results for the IC50 at GSK3β and on GSK3alpha were 1e-08 to 1e-07 M and below 1e-08 M, respectively.

Regarding `Cn1cnnc1-c1cccc(Nc2ncc3nnn(-c4cccc(F)c4)c3n2)c1` [Compound 26], the IC50 on GSK3β and at GSK3alpha was below 1e-08 M each time.

As for `Fc1cccc(-n2nnc3cnc(Nc4cccc(-c5cnccn5)c4)nc32)c1` [Compound 2], the melting point is above 260 °C. At GSK3β, the IC50 was below 1e-08 M. At GSK3alpha, the IC50 is below 1e-08 M.

In the case of `OCCc1cccc(-n2nnc3cnc(Nc4ccc(Nc5ncccn5)cc4)nc32)c1` [Compound 84], the IC50 at GSK3β and at GSK3alpha was below 1e-08 M throughout.

With `Cn1nnc(-c2cccc(Nc3ncc4nnn(-c5cccc(F)c5)c4n3)c2)n1` [Compound 29], the IC50 on GSK3β and at GSK3alpha was below 1e-08 M each time.

As for `Cn1ccnc1-c1cccc(Nc2ncc3nnn(-c4cccc(F)c4)c3n2)c1` [Compound 24], the IC50 at GSK3β and at GSK3alpha was below 1e-08 M in each case.

`CN1CCN(CCCOc2ccc(Nc3ncc4nnn(-c5cccc(CCO)c5)c4n3)cc2)CC1` [Compound 83]: the IC50 on GSK3β and at GSK3alpha was below 1e-08 M each time.

In the case of `CN1CCN(CCOc2ccc(Nc3ncc4nnn(-c5cccc(CCO)c5)c4n3)cc2)CC1` [Compound 82], the IC50 was 1e-08 M on GSK3β and below 1e-08 M on GSK3alpha.

Regarding `Nc1nccc(-c2cccc(Nc3ncc4nnn(-c5ccccc5)c4n3)c2)n1` [Compound 151], the IC50 on GSK3β and at GSK3alpha was below 1e-08 M in each case.

In the case of `Cn1nnc(-c2ccc(Nc3ncc4nnn(-c5cccc(Br)c5)c4n3)cc2)n1` [Compound 53], the IC50 on GSK3β was 1e-08 to 1e-07 M; at GSK3alpha it was below 1e-08 M.

As for `Cn1nnnc1-c1cccc(Nc2ncc3nnn(-c4cccc(CCO)c4)c3n2)c1` [Compound 76], the IC50 at GSK3β and at GSK3alpha was below 1e-08 M throughout.

Take `Cn1cc(Br)c(-c2cccc(Nc3ncc4nnn(-c5cccc(CCO)c5)c4n3)c2)n1` [Compound 152]: the IC50 on GSK3β and on GSK3alpha was below 1e-08 M in each case.

Take `OCCc1cccc(-n2nnc3cnc(Nc4ccc(CN5CCC(O)CC5)cc4)nc32)c1` [Compound 79]: the IC50 on GSK3β and at GSK3alpha was below 1e-08 M in each case.

With `COc1cccc(-n2nnc3cnc(Nc4cccc(-c5nnn(C)n5)c4)nc32)c1` [Compound 18], the IC50 on GSK3β and at GSK3alpha was below 1e-08 M in each case.

Take `NC(=O)Cc1cccc(-n2nnc3cnc(Nc4cccc(-c5cnco5)c4)nc32)c1` [Compound 95]: the IC50 on GSK3β and at GSK3alpha was below 1e-08 M each time.

With `Cn1nnnc1-c1cccc(Nc2ncc3nnn(-c4cccc(F)c4)c3n2)c1` [Compound 28], the IC50 at GSK3β and on GSK3alpha was below 1e-08 M in each case.

Source of the values: patent publication US7449465B2, “Triazolopyrimidine derivatives as glycogen synthase kinase 3 inhibitors” (Janssen Pharmaceutica, N.V., priority 2003, dated 2008).
